ChEMBL document CHEMBL3039007, “Structure-based identification of OATP1B1/3 inhibitors” (Mol Pharmacol, 2013)

Columns and labels:
[1] = target: T1, Solute carrier organic anion transporter family member 1B3 (Homo sapiens, UniProt Q9NPD5); conditions: chinese hamster, cho, 10 µM
T1 sequence (Q9NPD5 whole entry): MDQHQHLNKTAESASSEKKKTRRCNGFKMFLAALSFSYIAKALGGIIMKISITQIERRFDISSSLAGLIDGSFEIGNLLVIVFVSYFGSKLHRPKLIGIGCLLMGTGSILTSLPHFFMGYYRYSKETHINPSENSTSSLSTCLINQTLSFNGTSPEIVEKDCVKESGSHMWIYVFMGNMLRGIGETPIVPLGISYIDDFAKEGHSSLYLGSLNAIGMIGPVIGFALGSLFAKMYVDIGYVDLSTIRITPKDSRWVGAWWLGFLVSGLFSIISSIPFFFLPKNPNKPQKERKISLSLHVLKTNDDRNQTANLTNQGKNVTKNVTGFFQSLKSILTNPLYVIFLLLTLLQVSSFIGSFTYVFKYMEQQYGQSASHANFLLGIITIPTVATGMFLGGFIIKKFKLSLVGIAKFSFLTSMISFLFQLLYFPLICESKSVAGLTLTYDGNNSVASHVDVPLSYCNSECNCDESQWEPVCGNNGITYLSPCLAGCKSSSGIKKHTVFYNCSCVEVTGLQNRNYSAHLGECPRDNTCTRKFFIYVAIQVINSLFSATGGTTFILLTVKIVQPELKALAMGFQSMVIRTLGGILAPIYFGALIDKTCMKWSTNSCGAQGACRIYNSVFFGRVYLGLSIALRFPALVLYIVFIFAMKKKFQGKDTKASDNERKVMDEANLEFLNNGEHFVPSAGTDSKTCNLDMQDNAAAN

[2] = target: T2, Solute carrier organic anion transporter family member 1B1 (Homo sapiens, UniProt Q9Y6L6); conditions: chinese hamster, cho, 10 µM
T2 sequence (Q9Y6L6 whole entry): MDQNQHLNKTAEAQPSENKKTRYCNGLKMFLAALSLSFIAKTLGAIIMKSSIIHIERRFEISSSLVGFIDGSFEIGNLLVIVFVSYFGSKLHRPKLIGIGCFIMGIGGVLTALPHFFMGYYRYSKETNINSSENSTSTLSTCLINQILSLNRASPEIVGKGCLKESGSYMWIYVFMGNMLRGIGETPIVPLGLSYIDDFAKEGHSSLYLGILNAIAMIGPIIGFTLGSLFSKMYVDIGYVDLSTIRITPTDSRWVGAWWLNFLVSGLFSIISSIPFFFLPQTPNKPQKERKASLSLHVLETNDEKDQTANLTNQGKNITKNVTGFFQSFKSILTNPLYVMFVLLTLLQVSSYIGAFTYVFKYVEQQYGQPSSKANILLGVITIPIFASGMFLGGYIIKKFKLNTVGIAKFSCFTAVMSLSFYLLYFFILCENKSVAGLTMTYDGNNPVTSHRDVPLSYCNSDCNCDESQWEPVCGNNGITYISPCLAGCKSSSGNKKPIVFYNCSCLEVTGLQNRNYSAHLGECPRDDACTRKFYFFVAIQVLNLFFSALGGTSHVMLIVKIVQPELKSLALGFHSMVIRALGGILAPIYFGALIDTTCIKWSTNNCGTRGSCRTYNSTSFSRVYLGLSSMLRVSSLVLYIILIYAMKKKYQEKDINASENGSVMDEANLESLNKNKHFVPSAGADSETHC

Row | Structure (SMILES) | residual activity [1] | residual activity [2]
1 | NC1(C(=O)O)CC1 [1-Aminocyclopropane carboxylic acid] | 99.32% | 125.9%
2 | Cc1cc(O)c(C=O)c(O)c1C(=O)O [HAEMATOMMIC ACID] | 81.5% | 54.98%
3 | C[C@H](CCC(=O)O)[C@H]1CC[C@H]2[C@@H]3C(=O)C[C@@H]4CC(=O)CC[C@]4(C)[C@H]3CC(=O)[C@]12C [DEHYDROCHOLIC ACID] | 88.23% | 80.16%
4 | CN1CCN(C2=Nc3cc(Cl)ccc3Nc3ccccc32)CC1 [CLOZAPINE] | 93.38% | 86.29%
5 | Cc1cccc(C)c1NC(=O)C1CCCCN1C.Cl (stereo not given) [MEPIVACAINE HYDROCHLORIDE] | 96.16% | 96.31%
6 | CN(C)CCOC(c1ccc(Cl)cc1)c1ccccn1.O=C(O)/C=C\C(=O)O (stereo not given) [CARBINOXAMINE MALEATE] | 96.23% | 85.11%
7 | C/C=C(/C)C(=O)O[C@H]1CC[C@@]2(C)[C@@H]3CC[C@H]4[C@]5(O)C[C@H](O)[C@@]6(O)[C@@H](CN7C[C@@H](C)CC[C@H]7[C@@]6(C)O)[C@]5(O)C[C@@]42O[C@]13O [CEVADINE] | 84.71% | 78.54%
8 | O=C(O)C1CC([C@@H]2CCCCN2)CN2CCCCC12 (stereo not given in full) [APHYLLIC ACID] | 100.7% | 83.2%
9 | Oc1ccc2c(c1)OC[C@]1(O)Cc3cc(O)c(O)cc3[C@H]21 [BRAZILIN] | 101.4% | 117.2%
10 | C[C@]12CCC(=O)C=C1CCc1ccc(O)cc12 [12-HYDROXY-4,4-BISNOR-4,8,11,13-PODOCARPATETRAEN-3-ONE] | 82.18% | 47.54%
11 | CC(=O)/C(=C\c1ccccc1)CC(=O)O [LEVULINIC ACID,  3-BENZYLIDENYL-] | 110.1% | 134.7%
12 | CC(=O)/N=c1/sc(S(N)(=O)=O)nn1C [METHAZOLAMIDE] | 93.09% | 101.3%
13 | C=C[C@@H](C1=CC(=O)C(OC)=C(OC)C1=O)c1ccccc1 [3,4-DIMETHOXYDALBERGIONE] | 114.1% | 215.8%
14 | Cl.Cl.Fc1ccc([C@@H]2CCNC[C@H]2COc2ccc3c(c2)OCO3)cc1.Fc1ccc([C@@H]2CCNC[C@H]2COc2ccc3c(c2)OCO3)cc1.O [PAROXETINE HYDROCHLORIDE] | 76.07% | 96.74%
15 | COc1c2ccoc2cc2oc(C)cc(=O)c12 [VISNAGIN] | 98.15% | 127.2%
16 | CCN(CCCCOC(=O)c1ccc(OC)c(OC)c1)C(C)Cc1ccc(OC)cc1.Cl (stereo not given) [MEBEVERINE HYDROCHLORIDE] | 112% | 89.99%
17 | CCC1(C)CC(=O)NC1=O (stereo not given) [ETHOSUXIMIDE] | 102.9% | 137.5%
18 | C=C[C@@]1(C)CC(=O)[C@]2(O)[C@@]3(C)[C@@H](O)CCC(C)(C)[C@@H]3[C@H](O)[C@H](OC(C)=O)[C@@]2(C)O1 [COLFORSIN] | 83.25% | 118.8%
19 | COc1ccc(C[C@H]2NC[C@H](O)[C@H]2OC(C)=O)cc1 [ANISOMYCIN] | 81.11% | 81.33%
20 | COc1ccc([C@H]2COc3c(ccc(O)c3OC)C2)c(OC)c1O [DUARTIN (-)] | 86.99% | 88.51%
21 | O=C(O)CN(CCN(CC(=O)O)CC(=O)O)CC(=O)O [EDETIC ACID] | 82.24% | 81.77%
22 | C=CCCCCCCCCCCCC(O)CC(O)CO (stereo in doubt; form 1) [AVOCADENE] | 100.3% | 107.8%
23 | COc1ccccc1OCC(O)COC(N)=O (stereo not given) [METHOCARBAMOL] | 104.7% | 101.2%

Row | Structure (SMILES) | residual activity [1] | residual activity [2]
24 | CC1(C)S[C@@H]2[C@H](NC(=O)[C@H](N)c3ccccc3)C(=O)N2[C@H]1C(=O)[O-].[Na+] [AMPICILLIN SODIUM] | 88.9% | 76.76%
25 | COC(=O)[C@H](Cc1ccccc1)NC(=O)[C@@H](N)CC(=O)O | 115% | 85.37%
26 | COc1ccc(-c2cc(=O)c3c(O)c(OC)c(OC)cc3o2)cc1O [EUPATORIN] | 72.8% | 87.53%
27 | Nc1ccc(S(=O)(=O)Nc2ccnn2-c2ccccc2)cc1 [SULFAPHENAZOLE] | 98.59% | 104.5%
28 | C/C=C(/C)C(=O)O[C@@H]1c2c(ccc3ccc(=O)oc23)OC(C)(C)[C@@H]1OC(C)=O [PTERYXIN] | 114.3% | 84.8%
29 | O=C(O)/C=C(\CC(=O)O)C(=O)O [ACONITIC ACID] | 88.62% | 102.5%
30 | CC1=C(CC(=O)O)c2cc(F)ccc2/C1=C\c1ccc([S+](C)[O-])cc1 (stereo not given) | 88.55% | 240.6%
31 | CC(=O)OC[C@@]1(O)C[C@@]23CC[C@@H]4c5ccoc5CC[C@@]4(C)[C@@H]2CC[C@@H]1C3 [CAFESTOL ACETATE] | 89.68% | 108.6%
32 | COc1c(-c2coc3cc4c(cc3c2=O)CC(O)C(C)(C)O4)ccc2c1C=CC(C)(C)O2 (stereo not given) [MUNDULONE] | 45.15% | 31.23%
33 | C[N+]1(C)C[C@@H](O)C[C@@H]1C(=O)[O-] [BETONICINE] | 105.3% | 89.8%
34 | Cl.O=C1NCC2(CCN(CCc3ccccc3)CC2)O1 [FENSPIRIDE HYDROCHLORIDE] | 93.02% | 107.4%
35 | CC(=O)O[C@@H]1CC(=O)[C@]2(C)[C@H]3CC[C@@]4(C)[C@H](c5ccoc5)OC(=O)[C@H]5O[C@]54[C@]3(C)C(=O)C[C@H]2C1(C)C | 97.89% | 80.54%
36 | CC[C@H]1OC(=O)[C@H](C)[C@@H](O[C@H]2C[C@@](C)(OC)[C@@H](O)[C@H](C)O2)[C@H](C)[C@@H](O[C@@H]2O[C@H](C)C[C@H](N(C)C)[C@H]2O)[C@](C)(O)C[C@@H](C)[C@@H]2N[C@@H](COCCOC)O[C@H]([C@H]2C)[C@]1(C)O [DIRITHROMYCIN] | 95.43% | 109.1%
37 | COc1ccc(C2CC(=O)c3ccc(OC)cc3O2)cc1 (stereo not given) [LIQUIRITIGENIN DIMETHYL ETHER] | 114.3% | 104.2%
38 | CCOC(=O)C1=C[C@]2(CC)CCCN3CCc4c(n1c1ccccc41)[C@@H]32 [VINPOCETINE] | 109.4% | 167.7%
39 | C=CC(C1=CC(=O)C(OC)=CC1=O)c1ccccc1 (stereo not given) [4-METHOXYDALBERGIONE] | 139.3% | 77.75%
40 | CCc1cccc2c3c([nH]c12)C(CC)(CC(=O)O)OCC3 (stereo not given) [ETODOLAC] | 103.6% | 68.27%
41 | CCCCOC(=O)c1ccccc1C(=O)OCCCC [DIBUTYL PHTHALATE] | 124.6% | 119.5%
42 | COC(=O)[C@H]1[C@H]2C[C@H]3c4[nH]c5cc(OC)ccc5c4CCN3C[C@H]2C[C@@H](OC(=O)c2cc(OC)c(OC)c(OC)c2)[C@@H]1OC [ISORESERPINE] | 42.22% | 38.5%
43 | CC(=O)OCC(=O)[C@@]1(O)CC[C@H]2[C@@H]3CC[C@H]4CC(OC(C)=O)CC[C@]4(C)[C@H]3C(=O)C[C@@]21C (stereo not given in full) | 97.61% | 99.36%
44 | O=C(O)[C@@H](O)[C@H](O)[C@H](O)[C@@H](O)C(=O)O [MUCIC ACID] | 98.98% | 109%
45 | CC(=O)N[C@@H](CCC(=O)O)C(=O)O | 77.8% | 59.95%
